Test results: patent publication US20200397901A1, “PHOTORESPONSIVE SMOOTHENED LIGAND” (The University of Tokyo, priority 2018, published 2020)
Each block holds one compound with its values, some of them ahead of it.

Assays:
[1] = system: hedgehog signal downstream gene Gli in NIH-3T3 cells; test: Hedgehog signal assay in NIH-3T3 cells (Gli expression, quantitative PCR); format: cell-based
Description: (§1) NIH-3T3 cells were allowed to grow in DMEM (supplemented with 10% FBS, glutamine, penicillin, and streptomycin). In order to perform a hedgehog signal assay, the cells that had been cultured to reach confluent were cultured in a starvation-induced medium (DMEM; serum not added) overnight, so that the cells were in a starved state. Subsequently, the medium was exchanged with a starvation-induced medium supplemented with SAG, caged SAG, SANT75, caged SANT75, or the like. Using a halogen lamp, the cells were irradiated with a light for 15 minutes. Thereafter, total RNA was extracted from the NIH-3T3 cells cultured for 6 hours, and was then subjected to real-time PCR.
(§2) Total RNA was extracted using TriPure Isolation Reagent kit (Roche Diagnosis). cDNA was synthesized using SuperScript (registered trademark) IV Reverse Transcriptase (Invitrogen). Quantitative PCR was carried out using KAPA SYBR Fast qPCR kit (KAPA Biosystems). The data were standardized with respect to the expression level of GAPDH.

[2] = system: ventral cerebrum markers NKX2.1 and MASH1 in cerebral organoid; test: Immunohistostaining of cerebral organoids with anti-NKX2.1 and anti-MASH1 antibody; format: cell-based, human
Description: (§3) The cell line iPSC 409B2 (Cell no. HPS0076) was obtained from National University Corporation Kyoto University through RIKEN BioResource Center Cell Bank. In order to maintain the undifferentiated state, the iPS cells were cultured in an Essential 8 medium on a dish coated with vitronectin (VNT-N, Thermofisher Scientific).
(§4) A cerebral organoid was prepared according to the method described in Lancaster et al., Nat Protoc. 9: 2329-2340, 2014. Using TrypLE™ (Thermofisher Scientific), hiPSCs cultured in an E8 medium were separated into single cells, which were then reaggregated to a cell mass having a density of approximately 10,000 cells, using a […] E6 medium, in a low-adhesion 96-well round bottom plate.
(§5) To the E6 medium, FGF2 (5 ng/mL, 0 to 4 days after initiation of the culture) and a ROCK inhibitor (Thiazovivine, 1μM, 0 to 4 days after initiation of the culture) were added. The medium was exchanged with a fresh one at 2 and 4 days after initiation of the culture. At 6 days after initiation of the culture, the medium was exchanged with a neural differentiation medium (DMEM/F12, 1% N2 supplement, insulin, 1% GlutaMax supplement, 1% NEAA, 1% penicillin-streptomycin, and 1 μg/mL heparin) containing SAG, caged SAG (photoresponsive protective group-binding SAG), or caged SAG before or after UV irradiation. When caged SAG was added, the culture was irradiated with a light for 15 minutes, using a halogen lamp. At 6, 8, and 10 days after initiation of the culture, the medium was exchanged with a fresh one.
Three types of organoids cultured under individual conditions were recovered at 11 days after initiation of the culture, and were then subjected to qPCR. […]
Thereafter, the organoid was cut into a frozen section with a size of […] and was recovered on a slide glass. […] A fluorescent image was obtained using an inverted fluorescence microscope equipped with a CMOS camera (Zyla4.2, Andor).

[3] = molecular target: Smoothened (Mus musculus, UniProt P56726); conditions: previously reported, Chen et al., Proc. Natl. Acad Sci, 99: 14071-14076, 2002; cited from earlier work
Chain of Smoothened (P56726 33-793): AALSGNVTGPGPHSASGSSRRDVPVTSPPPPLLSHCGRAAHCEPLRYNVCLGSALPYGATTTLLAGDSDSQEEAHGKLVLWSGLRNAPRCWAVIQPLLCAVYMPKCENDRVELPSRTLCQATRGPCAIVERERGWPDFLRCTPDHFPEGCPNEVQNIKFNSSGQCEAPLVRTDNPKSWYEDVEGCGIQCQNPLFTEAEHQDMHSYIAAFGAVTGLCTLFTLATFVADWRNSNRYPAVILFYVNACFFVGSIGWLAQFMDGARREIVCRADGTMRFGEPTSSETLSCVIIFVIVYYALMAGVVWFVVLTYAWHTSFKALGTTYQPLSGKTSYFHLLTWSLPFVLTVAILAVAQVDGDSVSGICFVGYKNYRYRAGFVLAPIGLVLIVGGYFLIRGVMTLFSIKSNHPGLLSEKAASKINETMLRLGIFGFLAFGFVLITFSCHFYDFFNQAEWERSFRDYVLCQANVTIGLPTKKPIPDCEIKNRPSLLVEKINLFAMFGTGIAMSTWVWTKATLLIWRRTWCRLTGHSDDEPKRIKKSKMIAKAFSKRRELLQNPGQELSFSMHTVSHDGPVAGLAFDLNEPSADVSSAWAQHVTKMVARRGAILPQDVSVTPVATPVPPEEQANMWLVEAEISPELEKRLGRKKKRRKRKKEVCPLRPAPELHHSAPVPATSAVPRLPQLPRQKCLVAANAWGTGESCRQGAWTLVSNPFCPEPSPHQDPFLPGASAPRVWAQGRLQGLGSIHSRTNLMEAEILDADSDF

[4] = system: hedgehog signals (Glil expression); test: Inhibition of SAG-induced hedgehog signals (Glil expression) by antagonist; format: cell-based; conditions: SAG 100 nM and SANT75 1 μM simultaneously
Description: as §1, §2

[5] = Photolysis kinetic analysis of caged SAG using HPLC (365 nm light); format: physicochemical; conditions: 100 μM caged SAG in PBS:DMSO=9:1, light at 365 nm, 0 to 8 J/cm^2, HPLC
Description: 100 μM Caged SAG (PBS:DMSO=9:1) was irradiated with a light at a wavelength of 365 nm at an energy intensity of 0 to 8 J/cm^2. Each sample was analyzed according to HPLC (5-C18-AR-II column, at 0 min, CH3CN:H2O=5:95, at 8 min, 30:70, and then at 15 min, 0:100). Each fraction obtained by HPLC was recovered, and was then analyzed according to ESI spectrometry.

[6] = system: ventral cerebrum markers NKX2.1 and MASH1 in cerebral organoid; test: Expression of ventral cerebrum markers in cerebral organoids, quantitative PCR; format: cell-based, human
Description: as §3, §4, §5
Three types of organoids cultured under individual conditions were recovered at 11 days after initiation of the culture, and were then subjected to qPCR. Each organoid was embedded in a Matrigel droplet (25 μl), and was then transferred on a 60-mm dish containing a brain differentiation medium (DMEM/F12 : Neurobasal™ media=1:1, which was supplemented with a 0.5% N2 supplement, a 1% GlutaMax supplement, 0.5% NEAA, 1% penicillin-streptomycin, insulin, and a 1% B27 supplement (not containing vitamin A)). At 15 days after initiation of the culture, the medium was exchanged with a brain differentiation medium supplemented with a vitamin A-containing B27 supplement, and was then transferred into an Orbital Shaker. Thereafter, the medium was exchanged with a fresh one, every 4 or 5 days, until 30 days after initiation of the culture.
as §2

SMILES: CNC1CCC(N(Cc2cccc(-c3ccncc3)c2)C(=O)c2sc3ccccc3c2Cl)CC1 (centres unmarked) [SAG, reference compound]
- activation (expression level of Gli) ([1]; SAG at 1 nM): only a little activation
- activation (expression level of Gli) ([1]; SAG at 10 nM): activation was observed
- expression level of Gli ([1]; cells cultured in the presence of SAG): increased
- expression levels of NKX2.1 and MASH1 ([2]; cultured in the presence of SAG (SAG(+))): increased
- EC50 [3]: 3 nM

SMILES: CCCNC1CCC(N(Cc2cccc(-c3ccncc3)c2)C(=O)c2sc3ccccc3c2Cl)CC1 (centres unmarked) [SANT75]
- inhibition of hedgehog signals (expression level of Glil) [4]: competitive inhibition

- energy intensity at which photolysis was almost completed [5]: 2-4 J/cn^2
SMILES: COc1cc(C(C)OC(=O)N(C)C2CCC(N(Cc3cccc(-c4ccncc4)c3)C(=O)c3sc4ccccc4c3Cl)CC2)c([N+](=O)[O-])cc1OCCCC(=O)O (centres unmarked) [caged SAG]
- Smo agonistic activity ([6]; as a result of light irradiation): the same level of Smo agonistic activity as that of SAG
- expression levels of NKX2.1 and MASH1 ([6]; caged SAG after completion of light irradiation, 100 nM, quantitative PCR): increased
- expression of the ventral cerebrum markers (NKX2.1 and MASH1) ([6]; caged SAG before light irradiation, 100 nM, quantitative PCR): not induced
- activity of caged SAG ([6]; photodissociable protective group bound, without light irradiation): suppressed
- expression level of Gli ([1]; 100 nM caged SAG, cells irradiated with a light): increased
- expression of Gli ([1]; 100 nM caged SAG, cells not irradiated with a light): could not be confirmed
- activation (expression level of Gli) ([1]; caged SAG at 1 nM, with light irradiation): only a little activation
- activation (expression level of Gli) ([1]; caged SAG at 10 nM, with light irradiation): activation was observed
- expression levels of NKX2.1 and MASH1 ([2]; caged SAG after completion of light irradiation (100 nM)): increased
- expression levels of NKX2.1 and MASH1 ([2]; cerebral organoid cultured in the presence of caged SAG irradiated with a light): increased
